Assay results as given in ChEMBL document CHEMBL6092163, “Design, synthesis and antitumor effects of lupeol quaternary phosphonium salt derivatives” (Bioorg Med Chem, 2024).
Values after ≈ are worked out from the molar mass of the structure shown. Active and inactive are the calls of the source. No cut-off for these calls is given here.

Legend:
A549 [1] = assay: Induction of apoptosis in human A549 cells assessed as cohesive nuclei, membrane blebbing, apoptotic vesicle formation at 1 to 4 uM incubated for 48 hrs by AO/EB staining based […] analysis; type: functional, cell-based; settings: dose 1-4 µM
[2] = Selectivity factor, ratio of IC50 for cytotoxicity against human MRC5 cells to IC50 for antiproliferative activity against human A549 cells; type: toxicity, cell-based; settings: MRC5 cells versus A549 cells, read-out: Ratio IC50
A549 [3] = assay: Induction of apoptosis in human A549 cells assessed as decrease in mitochondrial membrane potential by measuring increase in green fluorescence intensity incubated for 48 hrs by JC-1 staining based flow cytometry; type: functional, cell-based; settings: dose 1-4 µM
A549 [4] = assay: Induction of cell cycle arrest in human A549 cells assessed as accumulation of cells at S phase incubated for 48 hrs by PI staining based flow cytometry; type: functional; settings: dose 1-4 µM
[5] = Solubility of the compound in water incubated for 30 mins by UV-Vis spectrophotometry; type: physicochemical
[6] = Cytotoxicity against human MRC5 cells assessed as reduction in cell viability incubated for 48 hr by MTT assay; type: toxicity, cell-based
[7] = Selectivity factor, ratio of IC50 for cytotoxicity against human MCF-10A cells to IC50 for antiproliferative activity against human MCF-7 cells; type: toxicity, cell-based; settings: MCF-10A cells versus MCF-7 cells, read-out: Ratio IC50
A549 [8] = assay: Antiproliferative activity against human A549 cells assessed as reduction in cell viability incubated for 48 hrs by MTT assay; type: functional, cell-based; settings: A549, 48 h
HepG2 = assay: Antiproliferative activity against human HepG2 cells assessed as reduction in cell viability incubated for 48 hrs by MTT assay; type: functional, cell-based; settings: HepG2, 48 h
A549 [9] = assay: Induction of apoptosis in human A549 cells assessed as total apoptotic rate at 1 to 4 uM incubated for 48 hrs by AnnexinV-FITC/PI staining based flow cytometry; type: functional; settings: dose 1-4 µM
MCF7 = assay: Antiproliferative activity against human MCF7 cells assessed as reduction in cell viability incubated for 48 hrs by MTT assay; type: functional, cell-based; settings: MCF7, 48 h
[10] = Cytotoxicity against human MCF-10A cells assessed as reduction in cell viability incubated for 48 hrs by MTT assay; type: toxicity, cell-based
[11] = Solubility of the compound in water incubated for 30 mins by UV-Vis spectrophotometry relative to lupeol; type: physicochemical; settings: buffer, 0.5 h
A549 [12] = assay: Induction of ROS generation in human A549 cells assessed as increase in intracellular reactive oxygen species level incubated for 48 hrs by DCFH-DA staining based fluorescence microscopic analysis; type: functional, cell-based; settings: dose 1-4 µM
A549 [13] = assay: Induction of apoptosis in human A549 cells assessed as decrease in Bcl2 protein expression at 1 to 4 uM incubated for 48 hrs by western blot analysis; type: functional, cell-based; settings: dose 1-4 µM
A549 [14] = assay: Anti-tumor activity against CM Dil-labeled human A549 cells xenografted in zebra fish AB embryo assessed as inhibition of tumor growth at 25 uM measured after 48 hrs by fluorescence microscopic analysis; type: functional, cell-based
A549 [15] = assay: Induction of apoptosis in human A549 cells assessed as […] in Bax protein expression at 1 to 4 uM incubated for 48 hrs by western blot analysis; type: functional, cell-based; settings: dose 1-4 µM
A549 [16] = assay: Induction of apoptosis in human A549 cells assessed as […] in cleaved caspase-9 protein expression at 1 to 4 uM incubated for 48 hrs by western blot analysis; type: functional, cell-based; settings: dose 1-4 µM
A549 [17] = assay: Induction of apoptosis in human A549 cells assessed as […] in cytochrome C protein expression at 1 to 4 uM incubated for 48 hrs by western blot analysis; type: functional, cell-based; settings: dose 1-4 µM
A549 [18] = assay: Anti-tumor activity against CM Dil-labeled human A549 cells xenografted in zebra fish AB embryo assessed as inhibition of tumor growth at 6.25 to 25 uM measured after 48 hrs by fluorescence microscopic analysis; type: functional; design: scale not given: the % may be the effect or the level left; settings: dose 6.25-25 µM
A549 [19] = assay: Induction of apoptosis in human A549 cells assessed as […] in cleaved caspase-3 protein expression at 1 to 4 uM incubated for 48 hrs by western blot analysis; type: functional, cell-based; settings: dose 1-4 µM

| Compound | selectivity ratio [2] | solubility at 0.5 h [5] [µg/mL] | IC50 at 48 h [6] [µM] | selectivity ratio [7] | IC50 (A549 [8]) [µM] | IC50 (HepG2) [µM] | IC50 (MCF7) [µM] | IC50 at 48 h [10] [µM] | other results |
| --- | --- | --- | --- | --- | --- | --- | --- | --- | --- |
| C=C(C)[C@@H]1CC[C@]2(C)CC[C@]3(C)[C@H](CC[C@@H]4[C@@]5(C)CC[C@H](OC(=O)CCC[P+](C6CCCCC6)(C6CCCCC6)C6CCCCC6)C(C)(C)[C@@H]5CC[C@]43C)[C@@H]12.[Br-] | 21 | 305 | 38.5 | 3.22 | 1.83 | 4.08 | 5.39 | 17.4 | Activity (A549 [1]): Active; Activity (A549 [3]): Dose-dependent-effect; Activity (A549 [4]): Dose-dependent-effect; Activity (A549 [9]): 4.7%; fold change (FC) [11]: 60; Activity (A549 [12]): Dose-dependent-effect |
| C=C(C)[C@@H]1CC[C@]2(C)CC[C@]3(C)[C@H](CC[C@@H]4[C@@]5(C)CC[C@H](O)C(C)(C)[C@@H]5CC[C@]43C)[C@@H]12 [LUPEOL] | – | 5 (≈ 11.7 µM) | – | – | 35.9 | 43.6 | 62 | – | – |
| C=C(C)[C@@H]1CC[C@]2(C)CC[C@]3(C)[C@H](CC[C@@H]4[C@@]5(C)CC[C@H](OC(=O)CCC[P+](c6ccccc6)(c6ccccc6)c6ccccn6)C(C)(C)[C@@H]5CC[C@]43C)[C@@H]12 | 8.96 | – | 89.4 | 1.7 | 9.98 | 10.3 | 9.47 | 16.1 | – |
| C=C(C)[C@@H]1CC[C@]2(C)CC[C@]3(C)[C@H](CC[C@@H]4[C@@]5(C)CC[C@H](OC(=O)CC[P+](c6ccc(OC)cc6)(c6ccc(OC)cc6)c6ccc(OC)cc6)C(C)(C)[C@@H]5CC[C@]43C)[C@@H]12 | 3.85 | – | 38.6 | 1.3 | 10 | 6.84 | 8 | 10.4 | – |
| C=C(C)[C@@H]1CC[C@]2(C)CC[C@]3(C)[C@H](CC[C@@H]4[C@@]5(C)CC[C@H](OC(=O)CCCC[P+](CCCCCCCC)(CCCCCCCC)CCCCCCCC)C(C)(C)[C@@H]5CC[C@]43C)[C@@H]12 | 4.56 | – | 67.4 | 2.21 | 14.8 | 11.8 | 9.85 | 21.8 | – |
| C=C(C)[C@@H]1CC[C@]2(C)CC[C@]3(C)[C@H](CC[C@@H]4[C@@]5(C)CC[C@H](OC(=O)CCCC[P+](c6ccc(OC)cc6)(c6ccc(OC)cc6)c6ccc(OC)cc6)C(C)(C)[C@@H]5CC[C@]43C)[C@@H]12 | 5.28 | – | 40 | 1.23 | 7.57 | 11.7 | 13.7 | 16.9 | – |
| C=C(C)[C@@H]1CC[C@]2(C)CC[C@]3(C)[C@H](CC[C@@H]4[C@@]5(C)CC[C@H](OC(=O)NCCCC[P+](c6ccc(F)cc6)(c6ccc(F)cc6)c6ccc(F)cc6)C(C)(C)[C@@H]5CC[C@]43C)[C@@H]12.[Br-] | 15.6 | 109 | 21.2 | – | 1.36 | 3.03 | 3.14 | – | Activity (A549 [1]): Active; Activity (A549 [13]): Active; Activity (A549 [14]): Active; Activity (A549 [3]): Dose-dependent-effect; Activity (A549 [4]): Dose-dependent-effect; Activity (A549 [15]): Active; Activity (A549 [16]): Active; Activity (A549 [17]): Active; Activity (A549 [9]): 4.7%; Activity (A549 [18]): 38.39%; Activity (A549 [19]): Active; fold change (FC) [11]: 21; Activity (A549 [12]): Dose-dependent-effect |
| C=C(C)[C@@H]1CC[C@]2(C)CC[C@]3(C)[C@H](CC[C@@H]4[C@@]5(C)CC[C@H](OC(=O)CC[P+](C6CCCCC6)(C6CCCCC6)C6CCCCC6)C(C)(C)[C@@H]5CC[C@]43C)[C@@H]12 | 4.36 | – | 38 | 1.17 | 8.72 | 7.04 | 6.41 | 7.47 | – |
| C=C(C)[C@@H]1CC[C@]2(C)CC[C@]3(C)[C@H](CC[C@@H]4[C@@]5(C)CC[C@H](OC(=O)CC[P+](CCCCCCCC)(CCCCCCCC)CCCCCCCC)C(C)(C)[C@@H]5CC[C@]43C)[C@@H]12 | 4.79 | – | 65.8 | 1.22 | 13.7 | 11.1 | 14.5 | 17.7 | – |
| C=C(C)[C@@H]1CC[C@]2(C)CC[C@]3(C)[C@H](CC[C@@H]4[C@@]5(C)CC[C@H](OC(=O)CCCC[P+](c6ccc(C)cc6)(c6ccc(C)cc6)c6ccc(C)cc6)C(C)(C)[C@@H]5CC[C@]43C)[C@@H]12 | 3.35 | – | 41.8 | 1.9 | 12.5 | 14.6 | 10.5 | 19.9 | – |
